# Experimental data as given in patent US12065692B2, “Optical super-multiplexing by polyynes” (The Trustees of Columbia University in the City of New York, priority 2017, dated 2024).
# Tested on: live HeLa cells
# Experiment: Live-cell SRS imaging of organelle-targeted polyynes and co-localization with fluorescent organelle markers
# Format: cell-based
# Protocol: FIG. 9 is live-cell SRS imaging of organelle-targeted polyynes and co-localization with fluorescent organelle markers. […] High co-localizations are also observed between organelle-targeted polyynes with commercial fluorescent markers;
# HeLa cells are cultured on a glass coverslip in a 4-well plate for 24 h, and […] Carbow2141 Mito is added in the media for 1 h at 37° C. Cells are washed with PBS for three times before imaging. For co-localization, 100 nM MitoTracker Deep Red is used to stain mitochondria for 1 h.
# Cells were cultured on a glass coverslip in a 4-well plate for 24 h, and 4 μM Carbow2141 Lyso is added to cells for 30 min at 37° C. Cells are washed with PBS for three times before imaging. For co-localization, 100 nM LysoTracker Red (Invitrogen, L7528) is used to stain lysosome for 30 min.
# Cell are incubated with 3 μM Carbow2141 PM in the culture media for 20 min at 37° C. and are washed with PBS for three times before imaging. For co-localization, 0.5 μg/mL CellMask Deep Red (Invitrogen, C10046) is used to stain cell membrane for 5 min.
# Cells were cultured on a glass coverslip in a 4-well plate for 24 h and incubated with 10 μM Carbow2226 ER for 2 h at 37° C. Cells were washed with PBS for three times before imaging. For colocalization, 1 μM ERTracker Green (Invitrogen, E34251) was used to stain endoplasmic reticulum for 2 h. […]
structure (smiles),measurement,value
O=C(NCCC[P+](c1ccccc1)(c1ccccc1)c1ccccc1)OCc1ccc(C#CC#CC#CC#Cc2ccccc2)cc1 [4-yne Mito],organelle localization / co-localization with fluorescent markers,specific localization to mitochondria
